In patent publication US7244614B2, “Fusion proteins and assays for molecular binding” (Cellomics, Inc., priority 2001, dated 2007):

Columns and labels:
Type in all cases: cell-based
MAPK [1] = assay: MAPK binding fusion protein (first variant, mutated n-myc NLS) redistribution in transfected HeLa cells, ArrayScan II; settings: for inhibition of the change in distribution of the fusion protein: 2 hours pretreatment with 10 uM inhibitor, then PMA; for change in localization of the fusion protein to the cytoplasm upon activation: serum starved 24 h, PMA 1.5 nM or sorbitol 200 mM, 1 hour
From the text: In this example, a fusion protein for detecting the availability for specific binding of MAPK, the protein of interest, is based on the distribution of the fusion protein between the cytoplasm and nucleus. It is constructed such that the detection domain is a GFP, the first localization sequence is a mutated NLS from n-myc, the second localization sequence is an NES from MAPKAP2, and the binding domain is the MAPK binding domain from RSK-1. The NLS and MAPK binding domain are separated by 2 amino acids. Operationally, the binding of MAPK to the binding domain blocks the localization of this fusion protein into the nucleus. […] Contacting the cell with a compound that activates MAPK, such as PMA or serum, will activate MAPK by inducing a dissociation of MAPK from MEK1, thus making MAPK available for binding to the RSK-1 binding domain in the fusion protein, and will shift the distribution of the fusion protein from the nucleus to the cytoplasm.
As shown below, this fusion protein was constructed using a GFP, a mutated nuclear localization signal from n-myc, based on human n-myc (Genbank accession number Y00664), the sequence from Proline 315 to Alanine 361 of MAPKAP2 (Genbank accession number X76850), which includes a nuclear export signal (between D^328 to E^351, SEQ ID NO:317), and the MAPK binding domain from RSK1 spanning from S^718 to T^733 (Genbank accession number L07597).
(§1) Protocol: HeLa cells were transiently transfected with the fusion protein. Cells were serum starved for 24 hours prior to treatment. Cells were then exposed to PMA (1.5 nM) or sorbitol (200 mM) for 1 hour. For inhibitor treatment, cells were pretreated for 2 hours with 10 uM inhibitor, and then treated with PMA, in parallel with non-inhibitor-treated cells. Cells were then treated with 3.7% formaldehyde & Hoechst 33342 for 20 minutes to fix and stain the nuclei, and then washed. Data was collected on ArrayScan II® (Cellomics, Inc. Pittsburgh, Pa.). […] Most, if not all, of the fusion protein was affected. The change in distribution was inhibitable by pretreatment of 10 uM PD98059, a specific inhibitor of MAPK activation, but not by SB203580, a specific inhibitor of p38 MAPK activation. Second Variant Protocol: HeLa cells were transiently transfected with the fusion protein. Cells were serum starved for 24 hours prior to treatment. Cells were exposed to serum (20%) or PMA (200 nM) for 2 hours. Cells were then treated with 3.7% formaldehyde & Hoechst 33342 for 20 minutes to fix and stain the nuclei, and then washed. Data was collected on ArrayScan II® (Cellomics, Inc. Pittsburgh, Pa.).

[2] = system: catalytic domain of cAMP-dependent protein kinase (cPKA); assay: cAMP-dependent protein kinase interaction fusion protein redistribution (nucleus/cytoplasm) in transfected HeLa cells, ArrayScan II; settings: serum starved 24 h, forskolin 2 h or PMA 1 h
From the text: In this example, a fusion protein for detecting the availability for specific binding of the catalytic domain of cAMP-dependent protein kinase (cPKA), the protein of interest, is based on the distribution of the fusion protein between the cytoplasm and nucleus. It is constructed such that the detection domain is a GFP, the first localization domain is the NLS from SV40 large T-antigen, the second localization domain is the NES from MAPKAP2, and the binding domain is from CREB. The NLS and the binding domain are separated by 2 amino acids. The fusion protein is introduced into cells via DNA transfection or retrovirus infection. The catalytic domain cPKA binds to the regulatory domain of PKA (rPKA) in the absence of cAMP. With an increase in the concentration of cAMP, cPKA dissociates from rPKA, enabling cPKA to bind to the fusion protein. Operationally, the binding of cPKA to the binding domain blocks the localization of this fusion protein into the nucleus. […] The ratio of these intensities can be readily measured. This fusion protein can detect cPKA binding in either the nucleus or cytoplasm. Contacting the cell with a compound that causes a separation of cPKA from rPKA, such as forskolin, via an increase cAMP, will shift the distribution of the fusion protein from the nucleus to the cytoplasm. […]

MAPK [3] = assay: MAPK binding fusion protein (second variant, SV40 NLS) redistribution in transfected HeLa cells, ArrayScan II; settings: serum starved 24 h, serum 20% or PMA 200 nM, 2 hours
Protocol: A variant of this MAPK binding fusion protein was also prepared. This fusion protein was constructed using a GFP, a nuclear localization signal from the SV 40 large T antigen (SEQ ID NO:145, Genbank accession number J02400), specifically P^126 to V^132, the sequence from Glutamic Acid 327 to Isoleucine 353 of MAPKAP2 (Genbank accession number X76850), which includes a nuclear export signal (between D^328 to E^351, SEQ ID NO:317), and the MAPK binding domain from RSK1, spanning from S^718 to T^733 (Genbank accession number L07597).
as §1, with “Second Variant Protocol: HeLa cells were transiently transfected with the fusion protein. Cells were serum starved for 24 hours prior to treatment. Cells were exposed to serum (20%) or PMA (200 nM) for 2 hours. Cells were then treated with 3.7% formaldehyde & Hoechst 33342 for 20 minutes to fix and stain the nuclei, and then washed. Data was collected on ArrayScan II® (Cellomics, Inc. Pittsburgh, Pa.).” left out

[4] = system: c-Jun N-terminal kinase (JNK); assay: c-Jun N-terminal protein kinase fusion protein redistribution in transfected HeLa cells, ArrayScan II; settings: for change in localization of the fusion protein to the cytoplasm upon activation: serum starved 24 h, anisomycin 500 nM, sorbitol 300 mM, TNF 100 ng/ml or staurosporine 1 uM, 1 hour
From the text: It is constructed such that the detection domain is a GFP, the first localization domain is a modified SV40 T antigen NLS, the second localization domain is an NES from MAPKAP2, and the binding domain is the JNK binding domain from c-jun. […] This example illustrates the detection and monitoring of a binding event induced to occur within the cell.
As shown below, this fusion protein was constructed using GFP, a modified nuclear localization signal from SV40 T antigen, the sequence from Proline 315 to Serine 362 of MAPKAP2 (Genbank accession number X76850), which includes a nuclear export signal (between D^328 to E^351, SEQ ID NO:317), and the sequence from P^30 to L^60 of c-Jun,(accession number J04111), which serves as the JNK binding domain.
Protocol: HeLa cells were transiently transfected with the fusion protein. Cells were serum starved for 24 hours prior to treatment. Cells were exposed to test compounds known to induce cell stress, including anisomycin (500 nM), sorbitol (300 mM), TNF (tumor necrosis factor, 100 ng/ml), or staurosporine (1 uM), for 1 hour. For inhibitor treatment, cells were pretreated for 2 hours with 10 uM inhibitor then treated with anisomycin, in parallel with non-inhibitor-treated cells. Cells were then treated with 3.7% formaldehyde & Hoechst 33342 for 20 minutes to fix and stain the nuclei, and then washed. Data was collected on ArrayScan II® (Cellomics, Inc. Pittsburgh, Pa.).

Row | SMILES | inhibition of the change in distribution of the fusion protein (MAPK [1]) | change in localization of the fusion protein to the cytoplasm upon activation (MAPK [1]) | change in localization of the fusion protein to the cytoplasm upon activation [4] | other results
1 | COc1cccc(-c2cc(=O)c3ccccc3o2)c1N [PD98059] | inhibitable | – | – | –
2 | CCCCCCCCCCCCCC(=O)O[C@@H]1[C@@H](C)[C@@]2(O)[C@@H](C=C(CO)C[C@]3(O)C(=O)C(C)=C[C@@H]23)[C@@H]2C(C)(C)[C@]12OC(C)=O [PMA, Phorbol-12-Myristate-13-Acetate] | – | led to a change in localization of the fusion protein to the cytoplasm | – | change in localization of the fusion protein to the cytoplasm upon activation [2]: led to a change in localization of the fusion protein to the cytoplasm; change in localization of the fusion protein to the cytoplasm upon activation (MAPK [3]): led to a change in localization of the fusion protein to the cytoplasm
3 | C[S+]([O-])c1ccc(-c2nc(-c3ccncc3)c(-c3ccc(F)cc3)[nH]2)cc1 (stereo not drawn) [SB203580] | not | – | – | effect of inhibitor pretreatment on the change in distribution of the fusion protein ([4]; 2 hours pretreatment with 10 uM inhibitor, then anisomycin): not affected
4 | COc1ccc(C[C@H]2NC[C@H](O)[C@H]2OC(C)=O)cc1 [anisomycin] | – | – | led to a change in localization of the fusion protein to the cytoplasm | –
5 | OC[C@@H](O)[C@@H](O)[C@H](O)[C@@H](O)CO [sorbitol] | – | did not induce a change in the localization of the fusion protein | – | –
6 | CN[C@@H]1C[C@H]2O[C@@](C)([C@@H]1OC)n1c3ccccc3c3c4c(c5c6ccccc6n2c5c31)C(=O)NC4 [staurosporine] | – | – | led to a change in localization of the fusion protein to the cytoplasm | –
